The source of these data is PubChem BioAssay AID1259407 (Chemical Carcinogenesis Research Information System (CCRIS), 2018).

In the data set the test system is CCRIS mutagenicity, Ames/micronucleus/aberration tests. The data set can be described thus: CCRIS mutagenicity studies.
The mark [1] stands for this setting: Test System: AMES SALMONELLA TYPHIMURIUM, Strain/Indicator: TA98(1,8-DNP6), Metabolic Activation: NONE, Method: STANDARD PLATE.
The mark [2] stands for this setting: Test System: AMES SALMONELLA TYPHIMURIUM, Strain/Indicator: TA98(NR), Metabolic Activation: NONE, Method: STANDARD PLATE.
Where [3] appears, read: Test System: AMES SALMONELLA TYPHIMURIUM, Strain/Indicator: TA98, Metabolic Activation: NONE, Method: STANDARD PLATE.

Active and inactive are the calls of the source. No rule for the calls is given here.

On to `CCCCN(C(CCC)OC(C)=O)[N+](=O)[O-]` (stereo not drawn), for which the mutagenic call (Test System: E. COLI, Strain/Indicator: WP2 (HCR-), Metabolic Activation: NONE) was “active; positive”.

`[O-][Cl+3]([O-])([O-])O`: the mutagenic call reads like this: (Test System: AMES SALMONELLA TYPHIMURIUM, Strain/Indicator: TA98, Metabolic Activation: NONE, Method: PREINCUBATION) “inactive; negative”; (Test System: AMES SALMONELLA TYPHIMURIUM, Strain/Indicator: TA98, Metabolic Activation: RAT LIVER S-9, PHENOBARBITAL AND BETA-NAPHTHOFLAVONE, Method: PREINCUBATION) “inactive; negative”; (Test System: AMES SALMONELLA TYPHIMURIUM, Strain/Indicator: TA100, Metabolic Activation: NONE, Method: PREINCUBATION) “inactive; negative”; (Test System: AMES SALMONELLA TYPHIMURIUM, Strain/Indicator: TA100, Metabolic Activation: RAT LIVER S-9, PHENOBARBITAL AND BETA-NAPHTHOFLAVONE, Method: PREINCUBATION) “inactive; negative”; (Test System: AMES SALMONELLA TYPHIMURIUM, Strain/Indicator: TA1535, Metabolic Activation: NONE, Method: PREINCUBATION) “inactive; negative”; (Test System: AMES SALMONELLA TYPHIMURIUM, Strain/Indicator: TA1535, Metabolic Activation: RAT LIVER S-9, PHENOBARBITAL AND BETA-NAPHTHOFLAVONE, Method: PREINCUBATION) “inactive; negative”. Further, the mutagenic call is, setting by setting: (Test System: AMES SALMONELLA TYPHIMURIUM, Strain/Indicator: TA1537, Metabolic Activation: NONE, Method: PREINCUBATION) “inactive; negative”; (Test System: AMES SALMONELLA TYPHIMURIUM, Strain/Indicator: TA1537, Metabolic Activation: RAT LIVER S-9, PHENOBARBITAL AND BETA-NAPHTHOFLAVONE, Method: PREINCUBATION) “inactive; negative”; (Test System: AMES SALMONELLA TYPHIMURIUM, Strain/Indicator: TA1538, Metabolic Activation: NONE, Method: PREINCUBATION) “inactive; negative”; (Test System: AMES SALMONELLA TYPHIMURIUM, Strain/Indicator: TA1538, Metabolic Activation: RAT LIVER S-9, PHENOBARBITAL AND BETA-NAPHTHOFLAVONE, Method: PREINCUBATION) “inactive; negative”; (Test System: E.COLI, Strain/Indicator: WP2UVRA, Metabolic Activation: NONE, Method: PREINCUBATION) “inactive; negative”; (Test System: E.COLI, Strain/Indicator: WP2UVRA, Metabolic Activation: RAT LIVER S-9, PHENOBARBITAL AND BETA-NAPHTHOFLAVONE, Method: PREINCUBATION) “inactive; negative”.

Regarding `O=[N+]([O-])c1cc2c3c(ccc4cccc(c43)CC2)c1`, the mutagenic call is, setting by setting: under setting [1], “active; positive”; under setting [2], “active; positive”; under setting [3], “active; positive”.

`Oc1ccc2c3ccccc3c3cc4ccccc4cc3c2c1`: the mutagenic call (Test System: AMES SALMONELLA TYPHIMURIUM, Strain/Indicator: TA100, Metabolic Activation: RAT, LIVER, S-9, AROCLOR 1254, Method: PREINCUBATION) is “active; positive”.

On to `O=C1C=Cc2ccc3c4c(ccc1c24)C(=O)c1ccccc1-3`, for which the mutagenic call (Test System: CHINESE HAMSTER V-79, Strain/Indicator: V-79/8-AZAGUANINE, Metabolic Activation: NONE, Method: STANDARD PLATE) is “active; positive”.

In the case of `CC(C)CC(=O)N=c1sn(C(=O)CC(C)C)c2ccc([N+](=O)[O-])cc12`, the mutagenic call (Test System: AMES SALMONELLA TYPHIMURIUM, Strain/Indicator: TA100, Metabolic Activation: S-9, Method: STANDARD PLATE) is “active; positive”.

With `CC(=O)OC(OC(C)=O)c1ccc([N+](=O)[O-])o1`, the mutagenic call by setting is: under setting [1], “active; positive”; (Test System: AMES SALMONELLA TYPHIMURIUM, Strain/Indicator: TA98(1,8-DNP6), Metabolic Activation: RAT, LIVER, S-9, 3-METHYLCHOLANTHRENE, Method: STANDARD PLATE) “active; positive”; under setting [2], “active; positive”; (Test System: AMES SALMONELLA TYPHIMURIUM, Strain/Indicator: TA98(NR), Metabolic Activation: RAT, LIVER, S-9, 3-METHYLCHOLANTHRENE, Method: STANDARD PLATE) “active; positive”; under setting [3], “active; positive”; (Test System: AMES SALMONELLA TYPHIMURIUM, Strain/Indicator: TA98, Metabolic Activation: RAT, LIVER, S-9, 3-METHYLCHOLANTHRENE, Method: STANDARD PLATE) “active; positive”. For the setting “Test System: E. COLI, Strain/Indicator: WP2 UVRA, Metabolic Activation: NONE, Method: SPOT”, the mutagenic call is “active; positive”.

On to `CCCCOC(=O)CCC`, for which the mutagenic call was “inactive; negative” (Test System: AMES SALMONELLA TYPHIMURIUM, Strain/Indicator: TA97, Metabolic Activation: NONE, Method: PREINCUBATION); “inactive; negative” (Test System: AMES SALMONELLA TYPHIMURIUM, Strain/Indicator: TA97, Metabolic Activation: RAT, LIVER, S-9, AROCLOR 1254, Method: PREINCUBATION); “inactive; negative” (Test System: AMES SALMONELLA TYPHIMURIUM, Strain/Indicator: TA102, Metabolic Activation: NONE, Method: PREINCUBATION); “inactive; negative” (Test System: AMES SALMONELLA TYPHIMURIUM, Strain/Indicator: TA102, Metabolic Activation: RAT, LIVER, S-9, AROCLOR 1254, Method: PREINCUBATION).

For the compound `Cc1cccc2cc3c(ccc4ccccc43)cc12`, the mutagenic call (Test System: AMES SALMONELLA TYPHIMURIUM, Strain/Indicator: TA100, Metabolic Activation: RAT, INTACT HEPATOCYTES, AROCLOR 1254, Method: PREINCUBATION) is “active; positive”; the mutagenic call (Test System: AMES SALMONELLA TYPHIMURIUM, Strain/Indicator: TA100, Metabolic Activation: RAT, NADPH-FORTIFIED HOMOGENIZED HEPATOCYTES, AROCLOR 1254, Method: PREINCUBATION) was “active; positive”; the mutagenic call (Test System: AMES SALMONELLA TYPHIMURIUM, Strain/Indicator: TA100, Metabolic Activation: RAT, SONICATED HEPATOCYTES, AROCLOR 1254, Method: PREINCUBATION) was “active; positive”.
